Test results taken from doi:10.1101/2022.07.18.500363v1 (biorxiv, 2022).
Where two headings read alike, the source gives them in different places.

Biological target: PL^pro (papain-like protease, domain of nsp3) (Severe acute respiratory syndrome coronavirus 2, UniProt P0DTD1)
Test: fluorogenic short peptide protease assay, 384-well
Format: biochemical

Compound	IC50 [µM]	IC50 (read-out: IC50PLpro, short peptide substrate, 37 °C, 10-60 min preincubation) [µM]
COc1cc(C(=O)NS(=O)(=O)c2ccccc2C)ccc1Cc1cn(C)c2ccc(NC(=O)OC3CCCC3)cc12 [DDL-715, zafirlukast]	~24	
CC1=NN(c2ccc(C)c(C)c2)C(=O)/C1=N/Nc1cccc(-c2cccc(-c3nnn[nH]3)c2)c1O [DDL-713, thrombopoietin receptor agonist-1]		~54
CC1=NN(c2ccc(C)c(C)c2)C(=O)C1=NNc1cccc(-c2cccc(C(=O)O)c2)c1O [DDL-701, eltrombopag]	13	
